From PMC10979003, “Development and crystal structures of a potent second-generation dual degrader of BCL-2 and BCL-xL” (Nature Communications, 2024)

Experiments:
[1] = biological target: T1, BCL-xL R103A/D107A/S110A/Q111A (Homo sapiens, UniProt Q07817, D107A/Q111A/R103A/S110A); test: AlphaScreen binary binding, BCL-xL R103A/D107A/S110A/Q111A; conditions: mean ± s.d., n=3; read-out: Ki (nM, n=3), BCL-xL R103A/D107A/S110A/Q111AA
T1 construct: BCL-xL (aa 2-212) and BCL-2 (aa 1-207) transformed cells were grown in LB broth; SMT3 (N); made in house; host or cells: E. coli BL21 (DE3) codon plus
T1 sequence (Q07817 2-212 R103A/D107A/S110A/Q111A): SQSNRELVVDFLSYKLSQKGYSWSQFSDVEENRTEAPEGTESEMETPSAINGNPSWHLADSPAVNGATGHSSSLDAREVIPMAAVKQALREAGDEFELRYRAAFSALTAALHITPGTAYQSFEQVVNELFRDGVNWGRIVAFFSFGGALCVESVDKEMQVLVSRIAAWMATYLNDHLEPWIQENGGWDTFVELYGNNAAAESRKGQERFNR
Description: (§1) To test the binary/ternary binding affinities of compounds to BCL-2/BCL-xL, AlphaScreen displacement binding assay was performed to test the capabilities of testing compounds to displace a Biotin-tagged Bim (Biotin-[…]) or Bad (Biotin-[…]) from BCL-2 or BCL-xL for BCL-2 and BCL-xL binding affinities, respectively. All reagents were diluted in assay buffer of 25 mM HEPES, pH 7.5, 150 mM NaCl, 0.1% BSA, and 0.005% tween 20 prior incubation. To a 96-well PCR plate (VWR, Cat. No. 82006-636) was added 10 μL Biotin-tagged Bim (15 nM for WT or 50 nM for mutants) or Bad (15 nM for WT or 50 nM for mutants), 10 μL series diluted compounds solution (2 or 3 or 4× dilution), and 10 μL self-made 6×His tagged BCL-2 WT or mutants (25 nM WT or 50 nM mutants) or 10 μL self-made BCL-xL WT and mutants (10 nM WT or 50 nM mutants). […] The luminescence signal was detected on a Biotek’s Synergy Neo2 multimode plate reader installed with an AphaScreen filter cube. The Ki values of each compounds were calculated by fitting data into the “Binding-competitive, One site-Fit Ki” function in GraphPad Prism (9.2.0) based on concentrations of Biotin–peptide used and experimentally determined Kd values of each 6×His protein &&&and Biotin–Peptide pair.

[2] = biological target: T2, VCB/PROTAC/BCL-xL ternary complex (Homo sapiens, UniProt P40337+Q07817); test: AlphaLISA ternary complex assay VCB/PROTAC/BCL-xL; type: binding; conditions: cell-free AlphaLISA
T2 construct: BCL-xL (aa 2-212) and BCL-2 (aa 1-207) transformed cells were grown in LB broth; SMT3 (N); GST (on the VCB complex); made in house; host or cells: E. coli BL21 (DE3) codon plus (stated for the BCL-xL construct)
T2 sequence (Q15369 17-112): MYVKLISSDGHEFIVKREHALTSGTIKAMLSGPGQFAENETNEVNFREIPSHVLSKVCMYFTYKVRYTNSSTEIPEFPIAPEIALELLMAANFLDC
T2 sequence (Q07817 2-212): as the sequence (Q07817 2-212 R103A/D107A/S110A/Q111A) above, with A102R, A106D, A109S, A110Q counted along it
T2 sequence (Q15370 whole entry, further chain, the tested form may be a part): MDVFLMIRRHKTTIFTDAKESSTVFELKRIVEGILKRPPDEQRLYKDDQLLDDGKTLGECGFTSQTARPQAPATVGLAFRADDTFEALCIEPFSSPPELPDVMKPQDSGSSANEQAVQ
T2 sequence (P40337 54-213): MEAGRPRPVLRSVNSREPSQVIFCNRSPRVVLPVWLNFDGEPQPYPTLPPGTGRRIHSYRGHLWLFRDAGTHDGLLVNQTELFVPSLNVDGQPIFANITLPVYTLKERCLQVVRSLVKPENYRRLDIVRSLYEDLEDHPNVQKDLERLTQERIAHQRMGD
Description: Assays were performed at room temperature. All reagents were diluted in assay buffer of 25 mM HEPES, pH 7.5, 150 mM NaCl, 0.1% BSA, and 0.005% tween 20. To a 96-well PCR plate (VWR, Cat. No. 82006-636) were added 10 μL self-made 6×His tagged BCL-xL (100 nM) or BCL-2 (150 nM), 10 μL series diluted compounds solution (4× dilution) and 10 μL of self-made GST-VCB (100 nM). After incubating at room temperature for 15 min, 5 µL of alpha glutathione-donor beads (160 μg/mL, PerkinElmer, Cat. No. 6765300) and 5 µL of anti-6×His acceptor beads (160 μg/mL, PerkinElmer, Cat. No. AL128M) to each well and incubated for additional 45 min in the dark before being transferred to two adjacent wells (17 µL each) of 384-well white OptiPlate (PerkinElmer, Cat. No. 6008280). The luminescence signal was detected on a Biotek’s Synergy Neo2 multimode plate reader installed with an AphaScreen filter cube. Intensity values were plotted in Graphpad Prism (9.2.0) with PROTAC concentration values represented on a log10 scale.

[3] = biological target: T3, HiBiT-BCL-2/HaloTag-VHL (Homo sapiens, UniProt P10415+P40337); test: NanoBRET ternary complex formation assay in 293T cells, HiBiT-BCL-2 and HaloTag-VHL; type: cell-based; conditions: 4 h, MG132 pretreatment
T3 construct: full-length BCL-xL and BCL-2 were expressed in cells for the nanoBRET assay; host or cells: 293T
T3 sequence (P10415 whole entry): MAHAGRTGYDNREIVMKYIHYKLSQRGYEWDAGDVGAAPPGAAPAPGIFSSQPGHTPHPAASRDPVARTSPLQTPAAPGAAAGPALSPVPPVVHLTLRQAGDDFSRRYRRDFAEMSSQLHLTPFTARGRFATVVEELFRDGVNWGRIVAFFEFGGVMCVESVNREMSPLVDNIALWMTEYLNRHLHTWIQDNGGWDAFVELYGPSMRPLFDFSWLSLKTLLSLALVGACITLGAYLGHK
T3 sequence (P40337 whole entry): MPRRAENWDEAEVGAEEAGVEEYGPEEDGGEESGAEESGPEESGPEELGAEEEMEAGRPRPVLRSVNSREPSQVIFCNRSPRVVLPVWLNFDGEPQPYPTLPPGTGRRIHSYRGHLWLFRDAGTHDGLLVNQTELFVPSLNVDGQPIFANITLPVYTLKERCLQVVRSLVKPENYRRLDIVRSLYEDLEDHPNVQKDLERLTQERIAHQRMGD
T3 sequence (Q15370 whole entry, further chain): as the sequence (Q15370 whole entry, further chain, the tested form may be a part) above
T3 sequence (Q15369 whole entry, further chain): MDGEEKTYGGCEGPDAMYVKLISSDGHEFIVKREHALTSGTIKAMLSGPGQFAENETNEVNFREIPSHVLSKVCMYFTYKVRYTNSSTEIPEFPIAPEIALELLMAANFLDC
Description: Plasmids HaloTag-VHL (Cat. No. CS1679C155) and CMV HiBiT (Cat. No. CS1956B03) were purchased from Promega. HiBiT-BCL-xL and HiBiT-BCL-2 were constructed previously. 293T cells (8 × 10^5 cells/well in a 6-well plate) were transfected with Lipofectamine (Life Technologies) and 1 μg HaloTag-VHL, 20 ng HiBiT-BCL-xL and 20 ng LgBiT or 1 μg HaloTag-VHL, 20 ng HiBiT-BCL-2 and 20 ng LgBiT. After 48 h, 2 × 10^4 transfected cells were seeded into each well of white 96-well tissue culture plates in Gibco™ Opti-MEM™ I Reduced Serum Medium, No Phenol Red (Cat. No. 11-058-021, Fisher) containing 4% FBS with or without HaloTag NanoBRET 618 Ligand (Cat. No. PRN1662, Promega) and incubated overnight at 37 °C, 5% CO2. […] After treatment, NanoBRET Nano-Glo Substrate (cat. no. N1662, Promega) was added into the medium, and the contents were mixed by shaking the plate for 30 s before measuring donor and acceptor signals on Biotek plate reader. Dual-filtered luminescence was collected with a 450/50 nm bandpass filter (donor, NanoBiT-BCL-XL protein or NanoBiT-BCL-2 protein) and a 610-nm longpass filter (acceptor, HaloTag NanoBRET ligand) using an integration time of 0.5 s. mBRET ratios were calculated following the NanoBRET™ Nano-Glo® Detection System (Cat. No. N1662, Promega).

[4] = biological target: T4, BCL-2 R110A (Homo sapiens, UniProt P10415, R110A); test: AlphaScreen binary binding, BCL-2 R110A; conditions: mean ± s.d., n=3
T4 construct: BCL-xL (aa 2-212) and BCL-2 (aa 1-207) transformed cells were grown in LB broth; made in house; host or cells: E. coli BL21 (DE3) codon plus
T4 sequence (P10415 1-207 R110A): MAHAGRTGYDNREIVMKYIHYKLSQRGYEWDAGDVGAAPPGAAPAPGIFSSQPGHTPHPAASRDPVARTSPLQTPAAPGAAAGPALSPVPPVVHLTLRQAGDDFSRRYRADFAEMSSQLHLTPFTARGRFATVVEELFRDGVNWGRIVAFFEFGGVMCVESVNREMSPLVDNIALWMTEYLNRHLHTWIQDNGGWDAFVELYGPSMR
Description: as §1

[5] = biological target: T5, BCL-2 R110A E114K (Homo sapiens, UniProt P10415, E114K/R110A); test: AlphaScreen binary binding, BCL-2 R110A E114K; conditions: mean ± s.d., n=3
T5 construct: BCL-xL (aa 2-212) and BCL-2 (aa 1-207) transformed cells were grown in LB broth; made in house; host or cells: E. coli BL21 (DE3) codon plus
T5 sequence (P10415 1-207 R110A/E114K): as the sequence (P10415 1-207 R110A) above, with E114K counted along it
Description: as §1

[6] = tested on: human platelets; test: Potency against human platelets in vitro; type: cell-based
[7] = tested on: H146 small cell lung cancer cells; test: Cytotoxicity in H146 SCLC cells in vitro; type: cell-based; conditions: Figure R4

Ki [1] [nM] | Structure (SMILES) | Ternary complex formation with BCL-xL (comparison with 753b) [2] | Cellular ternary complex formation with BCL-2 (comparison) [3] | Ki [4] [nM] | Ki [5] [nM] | Increase in therapeutic index compared to ABT263 [6] | Potency against H146 cells (comparison with ABT263, DT2216, 753b) [7]
23 ± 4 | Cc1ncsc1-c1ccc(C(C)NC(=O)C2CC(O)CN2C(=O)C(NC(=O)CCCCCCC(=O)N2CCN(CC3(C)CCC(c4ccc(Cl)cc4)=C(CN4CCN(c5ccc(C(=O)NS(=O)(=O)c6ccc(NC(CCN7CCOCC7)CSc7ccccc7)c(S(=O)(=O)C(F)(F)F)c6)cc5)CC4)C3)CC2)C(C)(C)C)cc1 (stereo not shown) [753b] | – | – | – | – | – | –
– | Cc1ncsc1-c1ccc([C@H](C)NC(=O)[C@@H]2C[C@@H](O)CN2C(=O)[C@@H](NC(=O)CN2CCN(CC(=O)N3CCN(C[C@]4(C)CCC(c5ccc(Cl)cc5)=C(CN5CCN(c6ccc(C(=O)NS(=O)(=O)c7ccc(N[C@H](CCN8C[C@@H]9C[C@H]8CO9)CSc8ccccc8)c(S(=O)(=O)C(F)(F)F)c7)cc6)CC5)C4)CC3)CC2)C(C)(C)C)cc1 [WH244] | tighter complex | modestly better than 753b | 8 ± 1.2 | 7 ± 0.9 | more than 100 fold | most potent
